Measurements taken from PubChem BioAssay (NCI).
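Step 1: Grow cells in 96-well plates. Step 2: Expose to compound for 48 hours at 5 concentrations. Step 3: Interpolate endpoints linearly; if unreached, use highest concentration. At the TGI there is no net growth.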

Legend:
Assay in all cases: NCI anticancer screen, dose series, 48 h
IGROV1 ovarian = test system: IGROV1 ovarian
SR leukemia = test system: SR leukemia
NCI/ADR-RES ovarian = test system: NCI/ADR-RES ovarian
PC-3 prostate = test system: PC-3 prostate
NCI-H522 lung = test system: NCI-H522 lung
K-562 leukemia = test system: K-562 leukemia
RPMI-8226 leukemia = test system: RPMI-8226 leukemia
A498 renal = test system: A498 renal
T-47D breast = test system: T-47D breast
EKVX NSCLC = test system: EKVX NSCLC
MDA-MB-435 = test system: MDA-MB-435
DU-145 prostate = test system: DU-145 prostate
HS 578T breast = test system: HS 578T breast
SK-OV-3 ovarian = test system: SK-OV-3 ovarian
MCF7 breast = test system: MCF7 breast
COLO 205 colon = test system: COLO 205 colon
OVCAR-4 ovarian = test system: OVCAR-4 ovarian
OVCAR-5 ovarian = test system: OVCAR-5 ovarian
A549 NSCLC = test system: A549 NSCLC
CCRF-CEM leukemia = test system: CCRF-CEM leukemia
M14 melanoma = test system: M14 melanoma
RXF 393 renal = test system: RXF 393 renal
MDA-MB-231 breast = test system: MDA-MB-231 breast
SF-268 CNS = test system: SF-268 CNS
UACC-257 melanoma = test system: UACC-257 melanoma
ACHN renal = test system: ACHN renal
SK-MEL-5 melanoma = test system: SK-MEL-5 melanoma
NCI-H460 lung = test system: NCI-H460 lung
OVCAR-8 ovarian = test system: OVCAR-8 ovarian
SNB-19 CNS = test system: SNB-19 CNS
MALME-3M melanoma = test system: MALME-3M melanoma
OVCAR-3 ovarian = test system: OVCAR-3 ovarian
HL-60(TB) leukemia = test system: HL-60(TB) leukemia
SF-539 CNS = test system: SF-539 CNS
NCI-H226 lung = test system: NCI-H226 lung
786-0 renal = test system: 786-0 renal
HCT-116 colon = test system: HCT-116 colon
BT-549 breast = test system: BT-549 breast
U251 CNS = test system: U251 CNS
UACC-62 melanoma = test system: UACC-62 melanoma
SNB-75 CNS = test system: SNB-75 CNS
MOLT-4 leukemia = test system: MOLT-4 leukemia
HCT-15 colon = test system: HCT-15 colon
MDA-N = test system: MDA-N
CAKI-1 renal = test system: CAKI-1 renal
KM12 colon = test system: KM12 colon
SK-MEL-2 melanoma = test system: SK-MEL-2 melanoma
HOP-92 NSCLC = test system: HOP-92 NSCLC
UO-31 renal = test system: UO-31 renal
SF-295 CNS = test system: SF-295 CNS
TK-10 renal = test system: TK-10 renal
SW-620 colon = test system: SW-620 colon
SN12C renal = test system: SN12C renal
SK-MEL-28 melanoma = test system: SK-MEL-28 melanoma
HCC-2998 colon = test system: HCC-2998 colon
HT29 colon = test system: HT29 colon
NCI-H23 lung = test system: NCI-H23 lung
HOP-62 NSCLC = test system: HOP-62 NSCLC
LOX IMVI melanoma = test system: LOX IMVI melanoma

Measured: TGI

S=c1ncc(-c2cncc(-c3cnc(=S)[nH]c3)n2)c[nH]1
> 100 µM: IGROV1 ovarian | SR leukemia | NCI/ADR-RES ovarian | PC-3 prostate | NCI-H522 lung | K-562 leukemia | RPMI-8226 leukemia | A498 renal | T-47D breast | EKVX NSCLC | MDA-MB-435 | DU-145 prostate | HS 578T breast | SK-OV-3 ovarian | MCF7 breast | COLO 205 colon | OVCAR-4 ovarian | OVCAR-5 ovarian | A549 NSCLC | CCRF-CEM leukemia | M14 melanoma | RXF 393 renal | MDA-MB-231 breast | SF-268 CNS | UACC-257 melanoma | ACHN renal | SK-MEL-5 melanoma | NCI-H460 lung | OVCAR-8 ovarian | SNB-19 CNS | MALME-3M melanoma | OVCAR-3 ovarian | HL-60(TB) leukemia | SF-539 CNS | NCI-H226 lung | 786-0 renal | HCT-116 colon | BT-549 breast | U251 CNS | UACC-62 melanoma | SNB-75 CNS | MOLT-4 leukemia | HCT-15 colon | MDA-N | CAKI-1 renal | KM12 colon | SK-MEL-2 melanoma | HOP-92 NSCLC | UO-31 renal | SF-295 CNS | TK-10 renal | SW-620 colon | SN12C renal | SK-MEL-28 melanoma | HCC-2998 colon | HT29 colon | NCI-H23 lung

COC(=O)/C=C(C)/C=C\COC1CCCCO1 (stereo not drawn)
> 100 µM: IGROV1 ovarian | SR leukemia | NCI/ADR-RES ovarian | PC-3 prostate | NCI-H522 lung | K-562 leukemia | RPMI-8226 leukemia | A498 renal | T-47D breast | EKVX NSCLC | MDA-MB-435 | DU-145 prostate | HS 578T breast | SK-OV-3 ovarian | MCF7 breast | COLO 205 colon | HOP-62 NSCLC | OVCAR-4 ovarian | OVCAR-5 ovarian | A549 NSCLC | CCRF-CEM leukemia | LOX IMVI melanoma | M14 melanoma | RXF 393 renal | MDA-MB-231 breast | SF-268 CNS | UACC-257 melanoma | ACHN renal | SK-MEL-5 melanoma | NCI-H460 lung | OVCAR-8 ovarian | SNB-19 CNS | MALME-3M melanoma | OVCAR-3 ovarian | HL-60(TB) leukemia | NCI-H226 lung | 786-0 renal | HCT-116 colon | BT-549 breast | U251 CNS | UACC-62 melanoma | SNB-75 CNS | MOLT-4 leukemia | HCT-15 colon | MDA-N | CAKI-1 renal | KM12 colon | SK-MEL-2 melanoma | UO-31 renal | SF-295 CNS | TK-10 renal | SW-620 colon | SN12C renal | SK-MEL-28 melanoma | HCC-2998 colon | NCI-H23 lung
